From ChEMBL document CHEMBL5728748 (2021)

experiment: TarO Biochemical Enzymatic Assay: The TarO biochemical enzymatic assay is a liquid chromatography-mass spectroscopy (LC-MS) based end point assay that measures C55-P-P-GlcNAc (LIPID III) production. The TarO biochemical enzymatic assay was performed in a 384-well microtiter plate (Labcyte) with a reaction volume of 20 μl. The reaction mix contained 0.1 μgs/μl of TarO membrane preparation derived from MRSA COL (lysostaphin/lysozyme treated, centrifuged at 40K rpm, and re-suspended in 50 mM Tris pH 7.5, 10 mM MgCl2), 1500 μM UDP-GlcNAc, x 75 μM C55-P substrates in 83 mM Tris pH 8.0, 6.7 mM MgCl2, 6 mM CHAPS, and 8.3% DMSO buffer. The enzyme reactions were quenched by extraction in 40 μl of 1-pentanol containing 0.04 μM […] C55-PP-GlcNAc, which was used as an internal standard. A 10 μl volume of the quenched reaction mixture (pH≈3) from each well was injected onto a reversed-phase column (C4, 5 m, 2.1×50 mm, Thermo Scientific Biobacis-4) and eluted using a NH4Ac/H2O/MeOH gradient (solvent A: 10 mM NH4Ac in water, pH 5.6; solvent B: NH4Ac (1 M)-Isopropanol (1:90, v/v, pH 5.6). The HPLC conditions were as follows: 15% solvent B for 15 seconds followed by a gradient to 90% solvent B in 90 seconds; then solvent B was kept at 95% for 10 seconds followed by a gradient to 8% solvent B in 0.1 minute. The column was then equilibrated at 15% B for 1 minute before the next injection. The flow rate was kept constant at 600 μl/minute. Mass spectrometric detection was carried out in the negative-ion mode using selected reaction monitoring (SRM). Typical mass spectrometric conditions were as follows: heated capillary temperature, 210° C.; spray voltage, 2500 V; desolvation gas (N2), 40 l/h; auxiliary gas (N2), 35 l/h. Selected ion current (SIC) chromatograms of C55-PP-GlcNAc and internal standard 15C C55-PP-GlcNAc were plotted and integrated using LCQuan incorporated in Xcalibur software (ThermoFinnigan). The linearity of C55-PP-GlcNAc concentration versus mass spectrometric signal (AC55-PP-GlcNAc/A15C-C55-PP-GlcNAc) was determined with purified C55-PP-GlcNAc. The IC50 values were calculated using the nonlinear regression analysis (sigmoidal dose response fit allowing for a variable slope) of percent inhibition data with minimum and maximum values set to 0 and 100 percent.

Row | Structure (SMILES) | IC50 [nM]
1 | C[C@H]1[C@@H](c2cc(C(F)(F)F)cc(C(F)(F)F)c2)OC(=O)N1C(=O)Cc1cccc2ccccc12 | 130
2 | C[C@H]1[C@@H](c2cc(C(F)(F)F)cc(C(F)(F)F)c2)OC(=O)N1C(=O)CCc1cccc2ccccc12 | 10
3 | O=C(NCc1cncc2ccccc12)N1C(=O)O[C@H](c2cc(F)cc(C(F)(F)F)c2)[C@@H]1CCO | 4770
4 | C[C@H]1[C@@H](c2cc(C(F)(F)F)cc(C(F)(F)F)c2)OC(=O)N1C(=O)CCc1cncc2ccccc12 | 10
5 | COc1cc(C(F)(F)F)cc([C@H]2OC(=O)N(C(=O)NCc3cncc4cccnc34)[C@H]2CO)n1 | 880
6 | C[C@H]1[C@@H](c2cc(N3CCC(F)(F)C3)cc(C(F)(F)F)c2)OC(=O)N1C(=O)NCc1cccc2cncnc12 | 260
7 | CC[C@H]1[C@@H](c2cc(C(F)(F)F)cc(C(F)(F)F)c2)OC(=O)N1C(=O)CCc1cncc2ccccc12 | 60
8 | Cc1ccc2c(n1)N(CCC(=O)N1C(=O)O[C@H](c3cc(F)cc(C(F)(F)F)c3)[C@@H]1C)CCO2 | 240
9 | O=C(CCc1cncc2ccccc12)N1C[C@H](c2cc(C(F)(F)F)cc(C(F)(F)F)c2)OC1=O | 540
10 | COc1cccc([C@H]2OC(=O)N(C(=O)CCc3cccc4ccccc34)[C@H]2C)n1 | 3000
11 | Cc1cc(C)cc([C@H]2OC(=O)N(C(=O)CCc3cncc4ccccc34)[C@H]2C)c1 | 1070
12 | C[C@H]1[C@@H](c2cccc(Br)n2)OC(=O)N1C(=O)CCc1cccc2ccccc12 | 480
13 | C[C@H]1[C@@H](c2cccc(OC(F)(F)F)c2)OC(=O)N1C(=O)CCc1cccc2ccccc12 | 40
14 | COc1cc([C@H]2OC(=O)N(C(=O)NCc3cncc4cccnc34)C[C@H]2C)cc(C(F)(F)F)c1 | 1260
15 | Cc1cc([C@H]2OC(=O)N(C(=O)CCc3cccc4cnccc34)[C@H]2C)cc(C(F)(F)F)c1 | 250
16 | C[C@H]1[C@@H](c2cc(Br)cc(C(F)(F)F)c2)OC(=O)N1C(=O)CCc1cncc2ccccc12 | 1490
17 | COc1cccc([C@H]2OC(=O)N(C(=O)CCc3cncc4ccccc34)[C@H]2C)c1 | 1200
18 | C[C@H]1[C@@H](c2cccc(OC(F)(F)F)c2)OC(=O)N1C(=O)CCc1cncc2ccccc12 | 140

Row | Structure (SMILES) | IC50 [nM]
19 | C[C@H]1[C@@H](c2cccc(F)c2)OC(=O)N1C(=O)CCc1cncc2ccccc12 | 3000
20 | C[C@H]1[C@@H](c2cc(C(F)(F)F)cc(C(F)(F)F)c2)OC(=O)N1C(=O)CCc1cccc2sccc12 | 10
21 | C[C@@H]1NN(C(=O)NCc2cncc3ccccc23)C(=O)O[C@@H]1c1cc(F)cc(C(F)(F)F)c1 | 950
22 | O=C(CCc1cncc2ccccc12)N1CC(c2cccc(F)c2F)OC1=O (stereo not given) | 1200
23 | C[C@H]1[C@@H](c2cc(F)cc(C(F)(F)F)c2)OC(=O)N1C(=O)CCc1cncc2ccccc12 | 80
24 | C[C@H]1[C@@H](c2cc(C(F)(F)F)cc(C(F)(F)F)c2)OC(=O)N1C(=O)COc1cccc2ccccc12 | 40
25 | O=C(CCc1cncc2ccccc12)N1CC(c2cc(C(F)(F)F)cc(C(F)(F)F)c2)OC1=O (stereo not given) | 420
26 | COc1cc(C(F)(F)F)nc([C@@H]2OC(=O)N(C(=O)NCc3cncc4ccccc34)[C@H]2C)n1 | 2170
27 | Cc1cccc(OCC(=O)N2C(=O)O[C@H](c3cccc(C(F)(F)F)c3)[C@@H]2C)c1C | 680
28 | C[C@H]1[C@@H](c2cc(F)c(F)c(F)c2)OC(=O)N1C(=O)CCc1cncc2ccccc12 | 1810
29 | C[C@H]1[C@@H](c2cc(C(F)(F)F)ccn2)OC(=O)N1C(=O)CCc1cncc2ccccc12 | 6980
30 | C[C@H]1[C@@H](c2cc(C(F)(F)F)cc(C(F)(F)F)c2)OC(=O)N1C(=O)CCc1cccc2ncccc12 | 250
31 | C[C@H]1[C@@H](c2ccc(F)c(F)c2)OC(=O)N1C(=O)CCc1cncc2ccccc12 | 4640
32 | C[C@H]1[C@@H](c2cc(C(F)(F)F)cc(C(F)(F)F)c2)OC(=O)N1C(=O)CCc1cccc2ccncc12 | 410
33 | C[C@H]1[C@@H](c2cc(N(C)C)cc(C(F)(F)F)c2)OC(=O)N1C(=O)NCc1cncc2ccccc12 | 30
34 | Cc1cc(F)cc([C@H]2OC(=O)N(C(=O)CCc3cncc4ccccc34)[C@H]2C)c1 | 1880
35 | C[C@H]1CN(C(=O)NCc2cncc3ccccc23)C(=O)O[C@@H]1c1cc(C(F)(F)F)cc(C(F)(F)F)c1 (single isomer, unassigned) | 30
